This is an account of results in PMC7115413 (European Journal of Medicinal Chemistry, 2016).

One data set can be described thus: Cytotoxicity test. As to conditions: human, TZM-bl cells. In kind it is cell-based.
The nature of another data set: Solubility in water. Format: physicochemical.

As for enfuvirtide, the CC50 in “Cytotoxicity test” was greater than 100 µM. In addition, the “aqueous solubility (in words)” value in “Solubility in water” is “negligible”.
